Assay results: patent US20210070748A1, “INHIBITORS OF BRUTONS TYROSINE KINASE” (Pharmacyclics LLC, priority 2015, published 2021)

Legend:
Type in all cases: biochemical
JAK3 = target: T1, JAK3 (Homo sapiens, UniProt P52333); experiment: Inhibition of a panel of kinases, in vitro HotSpot kinase assay: JAK3; details: D-compounds panel data; 1 μM ATP; read-out: IC50 JAK3
T1 sequence (P52333 1-1124): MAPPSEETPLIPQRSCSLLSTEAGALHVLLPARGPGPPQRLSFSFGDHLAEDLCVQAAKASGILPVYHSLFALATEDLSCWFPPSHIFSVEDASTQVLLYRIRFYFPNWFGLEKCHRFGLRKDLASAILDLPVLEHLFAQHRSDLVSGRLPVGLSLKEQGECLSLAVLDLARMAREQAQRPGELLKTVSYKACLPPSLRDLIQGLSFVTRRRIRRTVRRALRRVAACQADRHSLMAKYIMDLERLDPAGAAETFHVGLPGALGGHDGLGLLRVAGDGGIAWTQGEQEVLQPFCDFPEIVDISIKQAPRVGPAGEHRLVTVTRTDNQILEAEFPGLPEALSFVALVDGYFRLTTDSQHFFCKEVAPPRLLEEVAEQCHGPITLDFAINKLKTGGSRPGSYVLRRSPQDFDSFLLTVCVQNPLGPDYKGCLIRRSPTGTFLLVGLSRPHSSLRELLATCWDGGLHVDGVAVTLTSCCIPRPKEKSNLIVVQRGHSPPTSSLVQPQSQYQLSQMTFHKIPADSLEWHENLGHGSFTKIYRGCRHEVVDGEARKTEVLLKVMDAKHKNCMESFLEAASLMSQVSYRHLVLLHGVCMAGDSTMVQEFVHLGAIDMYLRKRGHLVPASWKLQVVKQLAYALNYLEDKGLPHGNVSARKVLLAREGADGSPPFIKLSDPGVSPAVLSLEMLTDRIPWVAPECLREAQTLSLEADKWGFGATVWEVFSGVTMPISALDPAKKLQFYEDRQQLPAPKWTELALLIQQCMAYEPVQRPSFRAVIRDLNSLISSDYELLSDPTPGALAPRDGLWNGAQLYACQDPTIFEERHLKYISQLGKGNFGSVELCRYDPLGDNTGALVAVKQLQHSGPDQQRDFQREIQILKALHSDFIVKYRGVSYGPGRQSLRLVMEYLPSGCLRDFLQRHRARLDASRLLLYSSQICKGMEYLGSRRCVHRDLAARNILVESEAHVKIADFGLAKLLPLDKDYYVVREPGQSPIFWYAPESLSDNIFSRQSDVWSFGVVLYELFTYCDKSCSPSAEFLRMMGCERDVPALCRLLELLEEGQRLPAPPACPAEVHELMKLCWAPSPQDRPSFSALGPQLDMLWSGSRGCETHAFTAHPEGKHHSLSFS

LCK = LCK (Homo sapiens, UniProt P06239); experiment: Inhibition of a panel of kinases, in vitro HotSpot kinase assay: LCK; details: D-compounds panel data; 1 μM ATP; read-out: IC50 LCK
ITK = target: T2, ITK (Homo sapiens, UniProt Q08881); experiment: Inhibition of a panel of kinases, in vitro HotSpot kinase assay: ITK; details: D-compounds panel data; 1 μM ATP
T2 sequence (Q08881 1-620): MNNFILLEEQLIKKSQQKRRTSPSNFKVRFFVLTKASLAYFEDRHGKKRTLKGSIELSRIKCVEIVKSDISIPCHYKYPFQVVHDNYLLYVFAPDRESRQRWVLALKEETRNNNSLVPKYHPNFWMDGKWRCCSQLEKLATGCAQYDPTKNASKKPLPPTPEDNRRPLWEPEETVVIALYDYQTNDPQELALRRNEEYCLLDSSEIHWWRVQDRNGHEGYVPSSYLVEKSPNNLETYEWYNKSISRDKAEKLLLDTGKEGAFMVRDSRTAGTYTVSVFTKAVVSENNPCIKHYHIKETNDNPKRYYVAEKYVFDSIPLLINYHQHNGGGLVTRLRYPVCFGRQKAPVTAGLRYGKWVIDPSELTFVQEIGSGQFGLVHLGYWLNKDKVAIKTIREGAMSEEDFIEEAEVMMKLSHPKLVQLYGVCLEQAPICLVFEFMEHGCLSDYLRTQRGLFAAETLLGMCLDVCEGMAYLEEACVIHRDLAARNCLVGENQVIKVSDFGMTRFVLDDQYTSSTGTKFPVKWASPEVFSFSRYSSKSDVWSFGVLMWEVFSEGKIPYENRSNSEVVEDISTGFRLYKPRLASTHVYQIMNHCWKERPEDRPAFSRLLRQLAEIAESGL
Description: (§1) The degree of inhibition of a panel of kinases is determined using the in vitro HotSpot kinase assay (purified enzymes, ^33P-ATP, an appropriate substrate and 1 μM ATP).

SRC = SRC (Homo sapiens, UniProt P12931); experiment: Inhibition of a panel of kinases, in vitro HotSpot kinase assay: SRC; details: D-compounds panel data; 1 μM ATP
Description: as §1

TEC = target: T3, TEC (Homo sapiens, UniProt P42680); experiment: Inhibition of a panel of kinases, in vitro HotSpot kinase assay: TEC; details: D-compounds panel data; 1 μM ATP
T3 sequence (P42680 1-631): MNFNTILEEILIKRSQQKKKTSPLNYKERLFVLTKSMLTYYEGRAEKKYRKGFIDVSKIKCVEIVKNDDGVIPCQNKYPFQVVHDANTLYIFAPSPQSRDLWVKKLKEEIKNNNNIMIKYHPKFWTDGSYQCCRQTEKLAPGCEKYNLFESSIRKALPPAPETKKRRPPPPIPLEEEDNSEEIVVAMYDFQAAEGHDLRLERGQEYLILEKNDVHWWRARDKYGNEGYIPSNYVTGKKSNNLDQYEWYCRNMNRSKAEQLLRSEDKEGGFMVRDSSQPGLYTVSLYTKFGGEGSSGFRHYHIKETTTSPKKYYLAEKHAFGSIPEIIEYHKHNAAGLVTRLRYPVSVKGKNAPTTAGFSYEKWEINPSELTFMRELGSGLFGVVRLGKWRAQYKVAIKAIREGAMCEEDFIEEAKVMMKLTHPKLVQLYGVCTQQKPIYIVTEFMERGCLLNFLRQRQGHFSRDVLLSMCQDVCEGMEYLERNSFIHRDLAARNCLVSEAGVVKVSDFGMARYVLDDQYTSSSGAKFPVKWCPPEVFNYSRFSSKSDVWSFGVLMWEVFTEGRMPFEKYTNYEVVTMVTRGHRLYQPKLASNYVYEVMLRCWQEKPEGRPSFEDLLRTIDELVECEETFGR
Description: as §1

LCK, sequence (P06239 whole entry): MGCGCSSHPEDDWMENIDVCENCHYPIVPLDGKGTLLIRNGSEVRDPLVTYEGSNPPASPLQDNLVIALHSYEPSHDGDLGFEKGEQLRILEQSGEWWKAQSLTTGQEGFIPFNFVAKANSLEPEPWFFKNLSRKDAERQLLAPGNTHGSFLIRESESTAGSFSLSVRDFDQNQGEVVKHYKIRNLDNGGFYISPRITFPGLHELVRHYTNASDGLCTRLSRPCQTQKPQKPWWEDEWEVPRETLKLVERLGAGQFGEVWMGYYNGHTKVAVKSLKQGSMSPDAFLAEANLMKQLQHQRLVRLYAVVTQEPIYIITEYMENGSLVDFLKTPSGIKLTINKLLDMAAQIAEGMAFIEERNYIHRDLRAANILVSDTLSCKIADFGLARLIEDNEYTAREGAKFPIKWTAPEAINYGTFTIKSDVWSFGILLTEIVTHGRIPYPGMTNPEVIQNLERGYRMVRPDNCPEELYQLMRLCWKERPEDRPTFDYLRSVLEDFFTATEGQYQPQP
SRC, sequence (P12931 whole entry): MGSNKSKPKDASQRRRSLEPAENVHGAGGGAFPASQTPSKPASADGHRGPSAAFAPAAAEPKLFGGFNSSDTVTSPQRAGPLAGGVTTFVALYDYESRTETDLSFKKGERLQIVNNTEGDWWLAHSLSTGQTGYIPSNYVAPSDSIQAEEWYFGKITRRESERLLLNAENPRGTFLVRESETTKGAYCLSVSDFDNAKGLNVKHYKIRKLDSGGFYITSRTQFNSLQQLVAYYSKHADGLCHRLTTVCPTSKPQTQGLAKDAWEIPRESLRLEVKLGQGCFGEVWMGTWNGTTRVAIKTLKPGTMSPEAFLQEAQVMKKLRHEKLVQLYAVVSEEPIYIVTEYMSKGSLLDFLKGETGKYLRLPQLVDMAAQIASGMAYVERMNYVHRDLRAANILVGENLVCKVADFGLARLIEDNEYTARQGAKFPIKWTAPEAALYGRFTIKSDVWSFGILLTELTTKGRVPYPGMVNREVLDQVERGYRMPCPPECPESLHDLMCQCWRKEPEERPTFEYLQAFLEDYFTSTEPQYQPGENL

SMILES | IC50 (JAK3) [µM] | IC50 (LCK) [µM] | IC50 (ITK) [µM] | IC50 (SRC) [µM] | IC50 (TEC) [µM]
C[C@@H]1CC[C@H](NC(=O)N(C)C)CN1c1cnc(C(N)=O)c(Nc2cnn(C)c2)n1 [Example D-151, 5-[(2R,5S)-5-[(dimethylcarbamoyl)amino]-2-methylpiperidin-1-yl]-3-[(1-methyl-1H-pyrazol-4-yl)amino]pyrazine-2-carboxamide] | > 10 | 0.01 to 0.1 | 1 to 10 | 0.1 to 1 | 0.01 to 0.1
C[C@@H]1[C@H](NC(=O)N(C)C)CCCN1c1cnc(C(N)=O)c(Nc2cnn(C)c2)n1 [Example D-128, 5-[(2R,3R)-3-[(dimethylcarbamoyl)amino]-2-methylpiperidin-1-yl]-3-[(1-methyl-1H-pyrazol-4-yl)amino]pyrazine-2-carboxamide] | 1 to 10 | 0.1 to 1 | 0.1 to 1 | 0.1 to 1 | 0.01 to 0.1
C[C@H]1CC[C@@H](NC(=O)c2ccc(C3CC3)cc2)CN1c1cnc(C(N)=O)c(Nc2ccc(N3CCN(C)CC3)c(F)c2)n1 [Example D-150, 5-[(2S,5R)-5-(4-cyclopropylbenzamido)-2-methylpiperidin-1-yl]-3-{[3-fluoro-4-(4-methylpiperazin-1-yl)phenyl]amino}pyrazine-2-carboxamide] | 1 to 10 | 0.01 to 0.1 | 0.1 to 1 | 0.01 to 0.1 | ≤ 0.01
C[C@@H]1[C@H](NC(=O)c2ccc(C3CC3)cc2)CCCN1c1cnc(C(N)=O)c(Nc2ccc(OC3CCN(CC(F)(F)F)CC3)cc2)n1 [Example D-98, 5-[(2R,3R)-3-(4-cyclopropylbenzamido)-2-methylpiperidin-1-yl]-3-[(4-{[1-(2,2,2-trifluoroethyl)piperidin-4-yl]oxy}phenyl)amino]pyrazine-2-carboxamide] | 1 to 10 | > 10 | 1 to 10 | > 10 | 0.1 to 1
C[C@@H]1[C@H](NC(=O)c2ccc(C3CC3)cc2)CCCN1c1cnc(C(N)=O)c(Nc2ccc(C3(C)CCN(C4CCCC4)CC3)cc2)n1 [Example D-112, 3-{[4-(1-cyclopentyl-4-methylpiperidin-4-yl)phenyl]amino}-5-[(2R,3R)-3-(4-cyclopropylbenzamido)-2-methylpiperidin-1-yl]pyrazine-2-carboxamide] | 0.1 to 1 | < 0.01 | 0.01 to 0.1 | ≤ 0.01 | ≤ 0.01
NC(=O)c1ncc(N2CCC[C@@H](n3ccc4cc(C5CC5)ccc4c3=O)C2)nc1Nc1ccc2ncccc2c1 [Example D-168, 5-[(3R)-3-(6-cyclopropyl-1-oxo-1,2-dihydroisoquinolin-2-yl)piperidin-1-yl]-3-[(quinolin-6-yl)amino]pyrazine-2-carboxamide] | > 10 | > 10 | > 10 | > 10 | 0.1 to 1
C[C@@H]1[C@H](NC(=O)c2ccc(C(F)(F)F)cc2)CCCN1c1cnc(C(N)=O)c(Nc2ccc(N3CCN(C)CC3)cc2)n1 [Example D-11, 5-[(2R,3R)-2-methyl-3-[4-(trifluoromethyl)benzamido]piperidin-1-yl]-3-{[4-(4-methylpiperazin-1-yl)phenyl]amino}pyrazine-2-carboxamide] | 1 to 10 | 0.01 to 0.1 | 0.1 to 1 | 0.01 to 0.1 | 0.01 to 0.1

Continued, values first:

IC50 (JAK3) [µM] | IC50 (LCK) [µM] | IC50 (ITK) [µM] | IC50 (SRC) [µM] | IC50 (TEC) [µM] | SMILES
> 10 | > 10 | > 10 | 0.1 to 1 | 0.01 to 0.1 | C[C@@H]1[C@H](NC(=O)c2ccc(C3CC3)cc2F)CCCN1c1cnc(C(N)=O)c(Nc2ccc3ncccc3c2)n1 [Example D-114, 5-[(2R,3R)-3-(4-cyclopropyl-2-fluorobenzamido)-2-methylpiperidin-1-yl]-3-[(quinolin-6-yl)amino]pyrazine-2-carboxamide]
1 to 10 | 0.1 to 1 | 0.1 to 1 | 0.1 to 1 | 0.01 to 0.1 | C[C@@H]1[C@H](NC(=O)c2ccc(OC(F)(F)F)cc2)CCCN1c1cnc(C(N)=O)c(Nc2cnn(C)c2)n1 [Example D-95, 3-[(1-methyl-1H-pyrazol-4-yl)amino]-5-[(2R,3R)-2-methyl-3-[4-(trifluoromethoxy)benzamido]piperidin-1-yl]pyrazine-2-carboxamide]
1 to 10 | 0.1 to 1 | 0.1 to 1 | 0.1 to 1 | 0.01 to 0.1 | Cc1cc(Nc2nc(N3CCC[C@@H](NC(=O)c4ccc(C(C)(C)O)cc4)C3)cnc2C(N)=O)sn1 [Example D-158, 5-[(3R)-3-[4-(2-hydroxypropan-2-yl)benzamido]piperidin-1-yl]-3-[(3-methyl-1,2-thiazol-5-yl)amino]pyrazine-2-carboxamide]
> 10 | 1 to 10 | > 10 | 1 to 10 | 0.1 to 1 | C[C@@H]1CC[C@@H](NC(=O)c2ccc(C3CC3)cc2)CN1c1cnc(C(N)=O)c(Nc2cnn(C)c2)n1 [Example D-143, 5-[(2R,5R)-5-(4-cyclopropylbenzamido)-2-methylpiperidin-1-yl]-3-[(1-methyl-1H-pyrazol-4-yl)amino]pyrazine-2-carboxamide]
> 10 | 0.1 to 1 | 1 to 10 | 0.1 to 1 | 1 to 10 | C[C@@H]1[C@H](NC(=O)c2ccc(C3CC3)cc2F)CCCN1c1cnc(C(N)=O)c(Nc2ccc(N3CCN(C)CC3)cc2)c1 [Example D-126, 5-[(2R,3R)-3-(4-cyclopropyl-2-fluorobenzamido)-2-methylpiperidin-1-yl]-3-{[4-(4-methylpiperazin-1-yl)phenyl]amino}pyridine-2-carboxamide]
> 10 | 1 to 10 | > 10 | 1 to 10 | > 10 | Cc1nsc(Nc2nc(N3CCC[C@@H](NC(=O)N(C)C)[C@H]3C)cnc2C(N)=O)c1C [Example D-119, 3-[(dimethyl-1,2-thiazol-5-yl)amino]-5-[(2R,3R)-3-[(dimethylcarbamoyl)amino]-2-methylpiperidin-1-yl]pyrazine-2-carboxamide]
